Data published in patent US8816095B2, “Na channels, disease, and related assays and compositions” (Georgetown University, priority 2008, dated 2014).

Legend:
hNav1.7 = target: T1, hNav1.7 (Homo sapiens, UniProt Q15858); test: Fluorescent (FRET) based sodium channel assay, hNav1.7; assay type: cell-based; conditions: HEK293 stably transfected with hNav1.7, 20 μM veratridine, read-out: hNav 1.7 IC50
T1 construct: expressed in transfected cells; host or cells: HEK293
Protocol: Two isoforms of the channel were examined: hNav1.5, a cardiac sodium channel associated with arrhythmias, and hNav1.7, an isoform found in the peripheral nervous system.
HEK293 cells stably transfected with either hNav1.5 or hNav1.7 were plated at approximately 11,000-20,000 cells/well in flat bottom, poly-D-lysine coated black-wall, clear-bottom, 384-well plates (Becton Dickinson, Bedford, Mass.), and incubated overnight at 37° C. in a 10% CO2 atmosphere in growth medium. Cells were washed with 0.03 mL of Dulbecco's phosphate buffered saline (D-PBS) containing calcium and magnesium. Cells were then incubated with 0.025 mL of a solution containing 10 μM CC2-DMPE and 0.02% pluronic acid in D-PBS with calcium and magnesium; supplemented with 10 mM glucose, and 10 mM Hepes-NaOH, pH 7.4. […] Afterwards, cells were incubated in the dark at 25° C. for 45 min with 0.025 mL of a solution containing 5 μM DiSBAC2(3) in VIPR-S, in the absence or presence of test compound. At the end of the incubation period, the plate was placed in a FLIPR TETRA instrument (MDS Analytical Technologies, Sunnyvale Calif.), illuminated at 390-420 nm, and fluorescence emissions were recorded at approximately 1 Hz at 460 and 580 nm. Following a 7 second baseline reading, 0.025 mL of VIPR-S containing 10 μM veratridine for Nav1.5 or 20 μM veratridine for Nav1.7 was added to each well, and the emissions of both dyes were recorded for an additional 33 seconds. The change in fluorescence resonance energy transfer (FRET) ratio (F/F0) was calculated as: F/F0=((A460/A580/(I460/I580) where A and I represent the readings after or before addition of veratridine, respectively, at the indicated wavelengths. For I, the readings from 2-5 seconds were averaged, and for A, readings from 3 seconds after the signal had reached a plateau level (usually within 30-40 s) were also averaged. Triplicate measurements were performed for each experimental condition and the data were averaged.

site 2 of the VGSC = test: [3H]-BTX-B displacement assay at site 2; assay type: binding, rat
[1] = Incidence of prostate cancer in epileptic men treated with sodium channel blockers; set-up: species or system human; conditions: 1427 epileptic men given drug vs 14270 control, 1994 to 2003
Excerpt: The incidence of prostate cancer in epileptic men treated with sodium channel blockers was studied from 1994 to 2003. In the study, 1427 epileptic men were given phenyloin as a sodium channel blocker while 14270 epileptic men were not given a sodium channel blocker (control).

T1 sequence (Q15858 whole entry): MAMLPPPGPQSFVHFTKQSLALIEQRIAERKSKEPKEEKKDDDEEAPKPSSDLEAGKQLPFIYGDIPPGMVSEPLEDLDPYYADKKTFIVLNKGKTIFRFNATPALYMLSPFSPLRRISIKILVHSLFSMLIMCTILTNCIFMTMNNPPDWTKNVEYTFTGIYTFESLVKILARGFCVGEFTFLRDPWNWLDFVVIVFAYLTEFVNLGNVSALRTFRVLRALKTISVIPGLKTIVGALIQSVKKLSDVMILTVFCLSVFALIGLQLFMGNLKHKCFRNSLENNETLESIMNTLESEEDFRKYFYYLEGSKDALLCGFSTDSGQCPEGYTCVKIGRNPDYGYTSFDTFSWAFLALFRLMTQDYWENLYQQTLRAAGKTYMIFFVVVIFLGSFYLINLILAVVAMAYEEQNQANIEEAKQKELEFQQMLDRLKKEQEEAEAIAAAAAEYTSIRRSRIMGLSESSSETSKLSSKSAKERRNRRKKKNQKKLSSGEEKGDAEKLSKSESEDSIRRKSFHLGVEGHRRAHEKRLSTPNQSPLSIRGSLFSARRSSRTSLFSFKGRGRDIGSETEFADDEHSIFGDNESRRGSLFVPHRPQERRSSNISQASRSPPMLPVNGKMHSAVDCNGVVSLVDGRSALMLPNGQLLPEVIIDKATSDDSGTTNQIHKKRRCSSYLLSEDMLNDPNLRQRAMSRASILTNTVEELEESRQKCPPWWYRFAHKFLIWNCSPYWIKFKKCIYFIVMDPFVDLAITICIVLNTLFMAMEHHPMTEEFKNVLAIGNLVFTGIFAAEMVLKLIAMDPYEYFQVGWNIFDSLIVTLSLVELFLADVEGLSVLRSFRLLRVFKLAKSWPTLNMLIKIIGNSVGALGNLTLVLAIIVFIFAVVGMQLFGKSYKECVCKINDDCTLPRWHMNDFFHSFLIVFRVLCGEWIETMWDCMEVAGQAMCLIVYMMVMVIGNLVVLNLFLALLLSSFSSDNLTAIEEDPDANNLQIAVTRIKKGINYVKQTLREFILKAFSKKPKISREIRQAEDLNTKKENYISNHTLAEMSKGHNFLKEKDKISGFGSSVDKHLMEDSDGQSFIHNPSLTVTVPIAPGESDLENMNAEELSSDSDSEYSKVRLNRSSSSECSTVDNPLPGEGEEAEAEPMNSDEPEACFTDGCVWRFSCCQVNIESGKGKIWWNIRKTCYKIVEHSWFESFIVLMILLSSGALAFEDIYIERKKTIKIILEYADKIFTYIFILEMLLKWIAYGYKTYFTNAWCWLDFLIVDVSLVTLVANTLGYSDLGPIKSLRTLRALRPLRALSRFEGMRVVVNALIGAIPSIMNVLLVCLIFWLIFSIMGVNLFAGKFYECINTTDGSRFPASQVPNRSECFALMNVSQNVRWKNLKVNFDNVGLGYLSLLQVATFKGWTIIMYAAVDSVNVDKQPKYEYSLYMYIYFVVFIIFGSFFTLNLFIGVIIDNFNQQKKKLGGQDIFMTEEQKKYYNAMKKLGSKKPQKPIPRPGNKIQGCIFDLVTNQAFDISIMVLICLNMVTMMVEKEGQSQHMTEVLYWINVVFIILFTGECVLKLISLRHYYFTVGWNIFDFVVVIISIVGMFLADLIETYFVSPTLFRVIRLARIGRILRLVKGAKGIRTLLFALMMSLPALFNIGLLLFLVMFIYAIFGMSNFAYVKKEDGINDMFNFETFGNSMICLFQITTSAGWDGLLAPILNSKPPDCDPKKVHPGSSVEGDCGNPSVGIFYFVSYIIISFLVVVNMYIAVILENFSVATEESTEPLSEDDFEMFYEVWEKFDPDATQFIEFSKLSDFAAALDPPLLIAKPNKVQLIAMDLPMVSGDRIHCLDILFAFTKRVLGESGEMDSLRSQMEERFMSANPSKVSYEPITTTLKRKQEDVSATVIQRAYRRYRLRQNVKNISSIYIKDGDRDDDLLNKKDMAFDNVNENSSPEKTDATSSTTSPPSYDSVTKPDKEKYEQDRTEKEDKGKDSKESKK

## O=C1NC(=O)C(c2ccccc2)(c2ccccc2)N1 [DPH, Diphenylhydantoin, reference compound]
hNav1.7
  IC50: > 100 µM
Site 2 of the VGSC; 40 μM, rat brain synaptoneurosomes, Table 9
  % [3H]-BTX Inhibition (40 μM): 30.4 ± 3.3%
Site 2 of the VGSC; 40 μm, rat brain synaptoneurosomes, Table 13
  % [3H]-BTX Displacement (40 μm): 27.7%
Site 2 of the VGSC; Screen at 40 μM, 2 replicates, referenced to Aconitine
  [3H]-BTX-B Binding Data, Displacement %: 50%
[1]
  less likely to be diagnosed with prostate cancer: 40%
